Laboratory results taken from US8952024B2, “Herbicidal pyrimidone derivatives” (E I du Pont de Nemours and Company, priority 2009, dated 2015).

What was measured:
Format in all cases: in vivo
[1] = test system: barnyardgrass (Echinochloa crus-galli); assay: Test A pre-/postemergence plant response
In short: (§1)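 Each species was treated preemergence via directed soil spray and postemergence at the one- to two-leaf stage, with compounds formulated in a non-phytotoxic solvent plus surfactant. Visual injury relative to untreated controls was rated after about ten days on a 0–100 scale.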

corn (Zea mays) = assay: Test A pre-/postemergence plant response
In short: as §1

[2] = test system: giant foxtail (Setaria faberii); assay: Test A pre-/postemergence plant response
In short: as §1

[3] = test system: large crabgrass (Digitaria sanguinalis); assay: Test A pre-/postemergence plant response
In short: as §1

[4] = test system: morningglory (Ipomoea spp.); assay: Test A pre-/postemergence plant response
In short: as §1

[5] = test system: pigweed (Amaranthus retroflexus); assay: Test A pre-/postemergence plant response
In short: as §1

[6] = test system: velvetleaf (Abutilon theophrasti); assay: Test A pre-/postemergence plant response
In short: as §1

[7] = test system: wheat (Triticum aestivum); assay: Test A pre-/postemergence plant response
In short: as §1

[8] = test system: cocklebur (Xanthium strumarium); assay: Test B pre-/postemergence plant response
In short: (§2)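 Response scores were assigned visually after 13 to 15 days in a greenhouse, comparing treated pots with controls on a 0–100 scale where 100 denotes complete control. Preemergence treatments went onto freshly seeded loam/sand soil; postemergence treatments onto plants 2 to 18 cm tall.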

[9] = test system: giant foxtail (Setaria faberii); assay: Test B pre-/postemergence plant response
In short: as §2

[10] = test system: green foxtail (Setaria viridis); assay: Test B pre-/postemergence plant response
In short: as §2

[11] = Postemergence, 125 g ai/ha, 0 to 100 scale where 0 is no effect and 100 is complete control
[12] = Postemergence, 500 g ai/ha, visual injury, 0 to 100 scale (0 no effect, 100 complete control), approx. ten days
[13] = Preemergence, 125 g ai/ha, 0 to 100 scale, 0 = no effect, 100 = complete control
[14] = Preemergence, 500 g ai/ha, 0 to 100 scale, 0 = no effect, 100 = complete control
[15] = Postemergence, 31 g ai/ha, 0 to 100 scale (0 no effect, 100 complete control)
[16] = Postemergence, 125 g ai/ha, scale 0 to 100 (0 no effect, 100 complete control)
[17] = Postemergence, 250 g ai/ha, scale 0 to 100 (0 no effect, 100 complete control), 13 to 15 days
[18] = Postemergence, 125 g ai/ha, visual injury, 0 to 100 scale (0 no effect, 100 complete control), approx. ten days
[19] = Postemergence, 500 g ai/ha, 0 to 100 scale, 0 = no effect, 100 = complete control, approx. ten days
[20] = Preemergence, 500 g ai/ha, visual injury, 0 to 100 scale (0 no effect, 100 complete control), approx. ten days
[21] = 31 g ai/ha, postemergence, scale 0 to 100, 0 is no effect, 100 is complete control
[22] = 250 g ai/ha, Preemergence, 0 to 100 scale
[23] = Postemergence, 62 g ai/ha, scale 0 (no effect) to 100 (complete control), 13 to 15 days
[24] = Postemergence, 125 g ai/ha, visual rating after 13 to 15 days, scale 0 (no effect) to 100 (complete control)
[25] = Postemergence, 250 g ai/ha, scale 0 to 100
[26] = Preemergence, 31 g ai/ha, scale 0 to 100 (0 no effect, 100 complete control)
[27] = Preemergence, 62 g ai/ha, scale 0 to 100, 0 no effect, 100 complete control
[28] = Preemergence, 125 g ai/ha, 0 to 100 scale

Structure (SMILES): O=C1CCCC(O)=C1C(=O)c1cnc(C2CC2)n(C2CCCCC2)c1=O [Compound 160]
- Plant response rating, Barnyardgrass [1, 11]: 90
- Barnyardgrass plant response rating [1, 12]: 100
- Plant response rating, Barnyardgrass [1, 13]: 40
- Plant response rating, Barnyardgrass [1, 14]: 80
- Plant response rating, Corn (corn (Zea mays); [11]): 20
- Corn plant response rating (corn (Zea mays); [12]): 60
- Plant response rating, Corn (corn (Zea mays); [13]): 0
- Plant response rating, Corn (corn (Zea mays); [14]): 20
- Plant response rating, Foxtail, Giant [2, 11]: 70
- Foxtail, Giant plant response rating [2, 12]: 80
- Plant response rating, Foxtail, Giant [2, 13]: 20
- Plant response rating, Foxtail, Giant [2, 14]: 70
- Plant response rating, Crabgrass, Large [3, 11]: 90
- Crabgrass, Large plant response rating [3, 12]: 90
- Plant response rating, Crabgrass, Large [3, 13]: 80
- Plant response rating, Crabgrass, Large [3, 14]: 100
- Plant response rating, Morningglory [4, 11]: 100
- Morningglory plant response rating [4, 12]: 100
- Plant response rating, Morningglory [4, 13]: 70
- Plant response rating, Pigweed [5, 11]: 100
- Pigweed plant response rating [5, 12]: 100
- Plant response rating, Pigweed [5, 13]: 80
- Plant response rating, Pigweed [5, 14]: 100
- Plant response rating, Velvetleaf [6, 11]: 100
- Velvetleaf plant response rating [6, 12]: 100
- Plant response rating, Velvetleaf [6, 13]: 60
- Plant response rating, Velvetleaf [6, 14]: 30
- Plant response rating, Wheat [7, 11]: 0
- Wheat plant response rating [7, 12]: 50
- Plant response rating, Wheat [7, 13]: 0
- Plant response rating, Wheat [7, 14]: 20
- Plant response rating, Cocklebur [8, 15]: 98
- Plant response rating, Cocklebur [8, 16]: 100
- Plant response rating, Cocklebur [8, 17]: 100
- Plant response rating, Foxtail, Giant [9, 15]: 70
- Plant response rating, Foxtail, Giant [9, 16]: 75
- Plant response rating, Foxtail, Giant [9, 17]: 85
- Plant response rating, Foxtail, Green [10, 15]: 55
- Plant response rating, Foxtail, Green [10, 16]: 70
- Plant response rating, Foxtail, Green [10, 17]: 98

Structure (SMILES): CCn1c(-c2ccccc2)ncc(C(=O)C2=C(O)CCCC2=O)c1=O [Compound 49]
- Barnyardgrass plant response rating [1, 18]: 60
- Plant response rating, Barnyardgrass [1, 19]: 90
- Plant response rating, Barnyardgrass [1, 13]: 20
- Plant response rating, Barnyardgrass [1, 20]: 60
- Corn plant response rating (corn (Zea mays); [18]): 0
- Plant response rating, Corn (corn (Zea mays); [19]): 20
- Plant response rating, Corn (corn (Zea mays); [13]): 0
- Plant response rating, Corn (corn (Zea mays); [20]): 0
- Foxtail, Giant plant response rating [2, 18]: 50
- Plant response rating, Foxtail, Giant [2, 19]: 80
- Plant response rating, Foxtail, Giant [2, 13]: 20
- Plant response rating, Foxtail, Giant [2, 20]: 50
- Crabgrass, Large plant response rating [3, 18]: 90
- Plant response rating, Crabgrass, Large [3, 19]: 90
- Plant response rating, Crabgrass, Large [3, 13]: 60
- Plant response rating, Crabgrass, Large [3, 20]: 90
- Morningglory plant response rating [4, 18]: 100
- Plant response rating, Morningglory [4, 19]: 100
- Plant response rating, Morningglory [4, 13]: 30
- Plant response rating, Morningglory [4, 20]: 80
- Pigweed plant response rating [5, 18]: 100
- Plant response rating, Pigweed [5, 19]: 100
- Plant response rating, Pigweed [5, 13]: 80
- Plant response rating, Pigweed [5, 20]: 90
- Velvetleaf plant response rating [6, 18]: 100
- Plant response rating, Velvetleaf [6, 19]: 100
- Plant response rating, Velvetleaf [6, 13]: 80
- Plant response rating, Velvetleaf [6, 20]: 90
- Wheat plant response rating [7, 18]: 0
- Plant response rating, Wheat [7, 19]: 0
- Plant response rating, Wheat [7, 13]: 0
- Plant response rating, Wheat [7, 20]: 0
- Plant response rating, Cocklebur [8, 21]: 65
- Plant response rating, Cocklebur [8, 22]: 55
- Plant response rating, Cocklebur [8, 23]: 80
- Plant response rating, Cocklebur [8, 24]: 80
- Cocklebur plant response rating [8, 25]: 85
- Plant response rating, Cocklebur [8, 26]: 0
- Plant response rating, Cocklebur [8, 27]: 20
- Cocklebur plant response rating [8, 28]: 45
- Plant response rating, Foxtail, Giant [9, 21]: 45
- Plant response rating, Foxtail, Giant [9, 22]: 45
- Plant response rating, Foxtail, Giant [9, 23]: 60
- Plant response rating, Foxtail, Giant [9, 24]: 70
- Foxtail, Giant plant response rating [9, 25]: 75
- Plant response rating, Foxtail, Giant [9, 26]: 0
- Plant response rating, Foxtail, Giant [9, 27]: 0
- Foxtail, Giant plant response rating [9, 28]: 20
- Plant response rating, Foxtail, Green [10, 21]: 50
- Plant response rating, Foxtail, Green [10, 22]: 30
- Plant response rating, Foxtail, Green [10, 23]: 50
- Plant response rating, Foxtail, Green [10, 24]: 75
- Foxtail, Green plant response rating [10, 25]: 90
- Plant response rating, Foxtail, Green [10, 26]: 0
- Plant response rating, Foxtail, Green [10, 27]: 0
- Foxtail, Green plant response rating [10, 28]: 5
